Each block holds one molecule with its values, some of them ahead of it.
Tested on: 616215-338-R-J1-PDC complex spheroid growth, % test/control
Test: Anticancer human tumor 616215-338-R-J1-PDC patient-derived colon adenocarcinoma cell line growth inhibition [Asc]
Details: for IC50: curve of first compound; for viability, T/C: stronger effect = lower value
Summary of the method: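 Tumor cells were grown as complex spheroids with human endothelial cells (HUVEC) and human mesenchymal stem cells as stroma. Agents were tested alone and in combination, in half-log steps down from the clinical Cmax, or from 10 microM where Cmax was unknown.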

[1] = second compound 0.03 µM, first compound 0.0316 µM
[2] = second compound 0.03 µM, first compound 0.1 µM
[3] = second compound 0.03 µM, first compound 0.316 µM
[4] = second compound 0.03 µM, first compound 1 µM
[5] = second compound 0.03 µM, first compound 3.16 µM
[6] = second compound 0.03 µM, first compound 10 µM
[7] = second compound 0.0949 µM, first compound 0.0316 µM
[8] = second compound 0.0949 µM, first compound 0.1 µM
[9] = second compound 0.0949 µM, first compound 0.316 µM
[10] = second compound 0.0949 µM, first compound 1 µM
[11] = second compound 0.0949 µM, first compound 3.16 µM
[12] = second compound 0.0949 µM, first compound 10 µM
[13] = second compound 0.3 µM, first compound 0.0316 µM
[14] = second compound 0.3 µM, first compound 0.1 µM
[15] = second compound 0.3 µM, first compound 0.316 µM
[16] = second compound 0.3 µM, first compound 1 µM
[17] = second compound 0.3 µM, first compound 3.16 µM
[18] = second compound 0.3 µM, first compound 10 µM
[19] = second compound 0.949 µM, first compound 0.0316 µM
[20] = second compound 0.949 µM, first compound 0.1 µM
[21] = second compound 0.949 µM, first compound 0.316 µM
[22] = second compound 0.949 µM, first compound 1 µM
[23] = second compound 0.949 µM, first compound 3.16 µM
[24] = second compound 0.949 µM, first compound 10 µM
[25] = second compound 3 µM, first compound 0.0316 µM
[26] = second compound 3 µM, first compound 0.1 µM
[27] = second compound 3 µM, first compound 0.316 µM
[28] = second compound 3 µM, first compound 1 µM
[29] = second compound 3 µM, first compound 3.16 µM
[30] = second compound 3 µM, first compound 10 µM
[31] = second compound 0.03 µM, first compound 0.00316 µM
[32] = second compound 0.03 µM, first compound 0.01 µM
[33] = second compound 0.0949 µM, first compound 0.00316 µM
[34] = second compound 0.0949 µM, first compound 0.01 µM
[35] = second compound 0.3 µM, first compound 0.00316 µM
[36] = second compound 0.3 µM, first compound 0.01 µM
[37] = second compound 0.949 µM, first compound 0.00316 µM
[38] = second compound 0.949 µM, first compound 0.01 µM
[39] = second compound 3 µM, first compound 0.00316 µM
[40] = second compound 3 µM, first compound 0.01 µM
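Further: spheroids exposed to agents for seven days before readout.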
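Wherever viability, T/C is given: 100% = DMSO vehicle control viability.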

IC50 (second compound 0.03 µM): > 10 µM | IC50 (second compound 0.0949 µM): > 10 µM | IC50 (second compound 0.3 µM): 1.71 µM | IC50 (second compound 0.949 µM): 1.63 µM | IC50 (second compound 3 µM): < 0.0316 µM
SMILES: C#Cc1c(F)ccc2cc(O)cc(-c3ncc4c(N5CC6CCC(C5)N6)nc(OCC56CCCN5CC(F)C6)nc4c3F)c12 (stereo not given) + CCN1C(C(=O)NC23CCC(C(=O)O)(CC2)CC3)C(c2cccc(Cl)c2F)C2(C(=O)Nc3cc(Cl)ccc32)C12CCCCC2
viability, T/C [1]: 91.1% | viability, T/C [2]: 98.6% | viability, T/C [3]: 93.5% | viability, T/C [4]: 94.3% | viability, T/C [5]: 84.4% | viability, T/C [6]: 67.5% | viability, T/C [7]: 84.9% | viability, T/C [8]: 85.3% | viability, T/C [9]: 91.4% | viability, T/C [10]: 82.5% | viability, T/C [11]: 80.3% | viability, T/C [12]: 68.1% | viability, T/C [13]: 56.4% | viability, T/C [14]: 57.1% | viability, T/C [15]: 61.6% | viability, T/C [16]: 54% | viability, T/C [17]: 44.7% | viability, T/C [18]: 38.4% | viability, T/C [19]: 63.6% | viability, T/C [20]: 66% | viability, T/C [21]: 60.5% | viability, T/C [22]: 51% | viability, T/C [23]: 46.5% | viability, T/C [24]: 30% | viability, T/C [25]: 36.6% | viability, T/C [26]: 42.4% | viability, T/C [27]: 36.1% | viability, T/C [28]: 32.4% | viability, T/C [29]: 20.1% | viability, T/C [30]: 17.4%

IC50 (second compound 0.03 µM): 5.68 µM | IC50 (second compound 0.0949 µM): 4.92 µM | IC50 (second compound 0.3 µM): 3.72 µM | IC50 (second compound 0.949 µM): 3.83 µM | IC50 (second compound 3 µM): < 0.0316 µM
SMILES: C=C(F)C(=O)N1CCN(c2nc(OCC3CCCN3C)nc3c2CCN(c2cccc4cccc(Cl)c24)C3)CC1CC#N (stereo not given) + CCN1C(C(=O)NC23CCC(C(=O)O)(CC2)CC3)C(c2cccc(Cl)c2F)C2(C(=O)Nc3cc(Cl)ccc32)C12CCCCC2
viability, T/C [1]: 106% | viability, T/C [2]: 103% | viability, T/C [3]: 109% | viability, T/C [4]: 106% | viability, T/C [5]: 101% | viability, T/C [6]: 0.87% | viability, T/C [7]: 106% | viability, T/C [8]: 96.7% | viability, T/C [9]: 99.3% | viability, T/C [10]: 93.4% | viability, T/C [11]: 82% | viability, T/C [12]: 0.4% | viability, T/C [13]: 69.9% | viability, T/C [14]: 67.9% | viability, T/C [15]: 66% | viability, T/C [16]: 65.7% | viability, T/C [17]: 58.2% | viability, T/C [18]: 0.52% | viability, T/C [19]: 62.2% | viability, T/C [20]: 65.5% | viability, T/C [21]: 67.6% | viability, T/C [22]: 63.8% | viability, T/C [23]: 59.9% | viability, T/C [24]: 0.26% | viability, T/C [25]: 48.9% | viability, T/C [26]: 48.8% | viability, T/C [27]: 46.2% | viability, T/C [28]: 45.6% | viability, T/C [29]: 46.2% | viability, T/C [30]: 0.36%

IC50 (second compound 0.03 µM): > 10 µM | IC50 (second compound 0.0949 µM): > 10 µM | IC50 (second compound 0.3 µM): > 10 µM | IC50 (second compound 0.949 µM): > 10 µM | IC50 (second compound 3 µM): 0.0842 µM
SMILES: C=CC(=O)N1CCN(c2nc(=O)n(-c3c(C)ccnc3C(C)C)c3nc(-c4c(O)cccc4F)c(F)cc23)C(C)C1 (stereo not given) + CCN1C(C(=O)NC23CCC(C(=O)O)(CC2)CC3)C(c2cccc(Cl)c2F)C2(C(=O)Nc3cc(Cl)ccc32)C12CCCCC2
viability, T/C [1]: 100% | viability, T/C [2]: 96.3% | viability, T/C [3]: 102% | viability, T/C [4]: 102% | viability, T/C [5]: 98.2% | viability, T/C [6]: 101% | viability, T/C [7]: 89.3% | viability, T/C [8]: 93.7% | viability, T/C [9]: 89.1% | viability, T/C [10]: 88.8% | viability, T/C [11]: 92.9% | viability, T/C [12]: 85.5% | viability, T/C [13]: 68.5% | viability, T/C [14]: 64.5% | viability, T/C [15]: 66.8% | viability, T/C [16]: 69.2% | viability, T/C [17]: 67.3% | viability, T/C [18]: 68.7% | viability, T/C [19]: 61.7% | viability, T/C [20]: 65% | viability, T/C [21]: 65.5% | viability, T/C [22]: 58.1% | viability, T/C [23]: 60% | viability, T/C [24]: 57.2% | viability, T/C [25]: 48.2% | viability, T/C [26]: 49.8% | viability, T/C [27]: 52.5% | viability, T/C [28]: 50.3% | viability, T/C [29]: 48.9% | viability, T/C [30]: 45.6%

IC50 (second compound 0.03 µM): > 1 µM | IC50 (second compound 0.0949 µM): > 1 µM | IC50 (second compound 0.3 µM): > 1 µM | IC50 (second compound 0.949 µM): > 1 µM | IC50 (second compound 3 µM): < 0.00316 µM
SMILES: CNC(C)C(=O)NC1CN(S(=O)(=O)c2cccc(S(=O)(=O)N3CCC4CCC(C(=O)NC(c5ccccc5)c5ccccc5)N4C(=O)C(NC(=O)C(C)NC)C3)c2)CCC2CCC(C(=O)NC(c3ccccc3)c3ccccc3)N2C1=O (stereo not given) + CCN1C(C(=O)NC23CCC(C(=O)O)(CC2)CC3)C(c2cccc(Cl)c2F)C2(C(=O)Nc3cc(Cl)ccc32)C12CCCCC2
viability, T/C [31]: 95.2% | viability, T/C [32]: 96.1% | viability, T/C [1]: 87.4% | viability, T/C [2]: 97.2% | viability, T/C [3]: 91% | viability, T/C [4]: 87% | viability, T/C [33]: 90.9% | viability, T/C [34]: 91.4% | viability, T/C [7]: 95.7% | viability, T/C [8]: 86.6% | viability, T/C [9]: 76% | viability, T/C [10]: 81.3% | viability, T/C [35]: 74.1% | viability, T/C [36]: 58.8% | viability, T/C [13]: 62.3% | viability, T/C [14]: 58.9% | viability, T/C [15]: 66.5% | viability, T/C [16]: 61.2% | viability, T/C [37]: 71.5% | viability, T/C [38]: 75.5% | viability, T/C [19]: 67.4% | viability, T/C [20]: 63.5% | viability, T/C [21]: 72.8% | viability, T/C [22]: 78.5% | viability, T/C [39]: 41.1% | viability, T/C [40]: 49.4% | viability, T/C [25]: 51.6% | viability, T/C [26]: 48.7% | viability, T/C [27]: 47.2% | viability, T/C [28]: 52.8%

IC50 (second compound 0.03 µM): 0.153 µM | IC50 (second compound 0.0949 µM): 0.0734 µM | IC50 (second compound 0.3 µM): 0.0219 µM | IC50 (second compound 0.949 µM): 0.00945 µM | IC50 (second compound 3 µM): < 0.00316 µM
SMILES: COc1c(OCCCN2CCOCC2)ccc2c3n(c(=NC(=O)c4cnc(N)nc4)nc12)CCN3 + CCN1C(C(=O)NC23CCC(C(=O)O)(CC2)CC3)C(c2cccc(Cl)c2F)C2(C(=O)Nc3cc(Cl)ccc32)C12CCCCC2
viability, T/C [31]: 95.7% | viability, T/C [32]: 99.4% | viability, T/C [1]: 99.7% | viability, T/C [2]: 63.6% | viability, T/C [3]: 26% | viability, T/C [4]: 13.1% | viability, T/C [33]: 89.3% | viability, T/C [34]: 81.2% | viability, T/C [7]: 74.2% | viability, T/C [8]: 41% | viability, T/C [9]: 15.2% | viability, T/C [10]: 6.02% | viability, T/C [35]: 59.7% | viability, T/C [36]: 59.2% | viability, T/C [13]: 46% | viability, T/C [14]: 23.4% | viability, T/C [15]: 9.03% | viability, T/C [16]: 3.12% | viability, T/C [37]: 55.1% | viability, T/C [38]: 47% | viability, T/C [19]: 38.4% | viability, T/C [20]: 14% | viability, T/C [21]: 5.66% | viability, T/C [22]: 1.65% | viability, T/C [39]: 45.7% | viability, T/C [40]: 40.4% | viability, T/C [25]: 27.4% | viability, T/C [26]: 7.37% | viability, T/C [27]: 3.24% | viability, T/C [28]: 0.71%

— PubChem BioAssay AID1963448 (Molecular Pharmacology Branch, DTP, NCI, 2024)
